# Laboratory results as given in US8466162B2, “5-alkynyl-pyridines” (Boehringer Ingelheim International GmbH, priority 2011, dated 2013).
# What was measured:
# BT474 cells = assay: alamarBlue BT474 cell assay (antiproliferative/cytotoxicity); assay type: cell-based; conditions: BT-474 human breast cancer cell line, 5-6 days incubation
# How it was run: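 Read-out: alamarBlue reduction by metabolically active cells, fluorescence ex 530-560 nm/em 590 nm, measured 8 h after dye addition at 37° C. Cells had been exposed to compound for 5-6 days over a 10-point 1:3 series starting at 10 μM final. EC50 derived after medium-blank subtraction.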
# PI3Kalpha = biological target: T1, PI3Kalpha (Homo sapiens, UniProt P42336); assay: Inhibition of PI3Kalpha-induced PIP-2 phosphorylation (filter-binding assay, 33P-ATP); assay type: biochemical; conditions: PI3 Kinase alpha (p85alpha/His-p110alpha), 1 μM ATP; read-out: IC50 PI3Kα
# T1 construct: His (N); made in house; host or cells: SF9 insect cells (baculovirus co-infection)
# T1 sequence (P27986 whole entry): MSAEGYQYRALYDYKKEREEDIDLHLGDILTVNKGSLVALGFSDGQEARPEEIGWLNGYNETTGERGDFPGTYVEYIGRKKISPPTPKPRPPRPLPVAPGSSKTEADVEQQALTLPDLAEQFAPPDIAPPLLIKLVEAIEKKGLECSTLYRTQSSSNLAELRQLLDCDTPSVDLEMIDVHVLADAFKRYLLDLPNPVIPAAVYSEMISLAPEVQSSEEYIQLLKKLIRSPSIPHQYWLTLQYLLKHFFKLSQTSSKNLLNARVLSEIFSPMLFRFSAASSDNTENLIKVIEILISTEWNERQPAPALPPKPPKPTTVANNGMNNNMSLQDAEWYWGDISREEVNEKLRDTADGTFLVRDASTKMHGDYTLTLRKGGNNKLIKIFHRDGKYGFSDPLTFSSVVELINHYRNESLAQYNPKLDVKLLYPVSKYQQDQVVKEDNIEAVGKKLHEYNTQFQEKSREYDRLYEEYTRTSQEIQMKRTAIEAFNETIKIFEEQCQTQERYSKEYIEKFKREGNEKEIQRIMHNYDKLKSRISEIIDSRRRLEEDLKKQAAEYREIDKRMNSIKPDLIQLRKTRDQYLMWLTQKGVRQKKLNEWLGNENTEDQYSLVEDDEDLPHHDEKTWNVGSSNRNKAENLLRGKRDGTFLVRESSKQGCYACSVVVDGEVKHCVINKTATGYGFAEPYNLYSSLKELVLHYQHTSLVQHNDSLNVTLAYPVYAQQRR
# T1 sequence (P42336 whole entry): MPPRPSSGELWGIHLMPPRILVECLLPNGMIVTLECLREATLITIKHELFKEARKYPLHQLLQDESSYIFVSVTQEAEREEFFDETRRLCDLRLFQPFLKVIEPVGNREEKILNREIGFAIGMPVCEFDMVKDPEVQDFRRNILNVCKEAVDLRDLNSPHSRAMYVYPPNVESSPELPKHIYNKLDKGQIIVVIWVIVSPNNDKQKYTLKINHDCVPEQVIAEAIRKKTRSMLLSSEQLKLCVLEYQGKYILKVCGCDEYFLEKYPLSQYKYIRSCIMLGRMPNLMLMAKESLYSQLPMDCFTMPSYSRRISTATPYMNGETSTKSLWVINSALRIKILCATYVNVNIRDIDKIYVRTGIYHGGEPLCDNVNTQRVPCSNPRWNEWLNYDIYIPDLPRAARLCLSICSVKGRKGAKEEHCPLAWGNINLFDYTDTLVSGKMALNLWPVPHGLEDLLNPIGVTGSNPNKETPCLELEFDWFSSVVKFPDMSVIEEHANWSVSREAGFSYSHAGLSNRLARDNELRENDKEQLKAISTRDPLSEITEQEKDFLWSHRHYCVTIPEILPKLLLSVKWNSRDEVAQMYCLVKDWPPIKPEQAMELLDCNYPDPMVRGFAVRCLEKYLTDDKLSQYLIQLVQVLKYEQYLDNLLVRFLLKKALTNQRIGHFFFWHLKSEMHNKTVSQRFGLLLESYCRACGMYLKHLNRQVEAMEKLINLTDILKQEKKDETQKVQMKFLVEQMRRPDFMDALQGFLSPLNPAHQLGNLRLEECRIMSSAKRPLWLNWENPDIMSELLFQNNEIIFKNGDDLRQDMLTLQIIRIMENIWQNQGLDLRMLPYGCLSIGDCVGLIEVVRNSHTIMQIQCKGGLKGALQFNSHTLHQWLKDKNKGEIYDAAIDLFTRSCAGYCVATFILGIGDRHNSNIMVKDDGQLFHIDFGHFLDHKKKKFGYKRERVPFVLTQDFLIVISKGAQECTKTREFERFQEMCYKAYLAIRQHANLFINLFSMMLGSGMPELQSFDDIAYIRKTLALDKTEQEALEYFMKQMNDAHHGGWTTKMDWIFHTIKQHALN
# H460 cells = assay: alamarBlue H460 cell assay (antiproliferative/cytotoxicity); assay type: cell-based; conditions: NCI-H460; H460 human lung carcinoma cells
# How it was run: (§1)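 EC50 values reflect antiproliferative or cytotoxic effect, taken from fluorometric alamarBlue signal (excitation 530-560 nm, emission 590 nm) corrected for a medium blank. Exposure lasted 5-6 days at concentrations up to 10 μM final.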
# MB453 cells = assay: alamarBlue MB453 cell assay (antiproliferative/cytotoxicity); assay type: cell-based; conditions: Homo sapiens; MDA MB 453 breast cancer cell line
# How it was run: as §1
# U87 cells = assay: alamarBlue U87 cell assay (antiproliferative/cytotoxicity); assay type: cell-based; conditions: U-87MG human glioblastoma cells
# How it was run: as §1
# MCF7 cells = assay: alamarBlue MCF7 cell assay (antiproliferative/cytotoxicity); assay type: cell-based; conditions: MCF7 human breast cancer cell line
# How it was run: as §1
IC50 (PI3Kalpha),SMILES,EC50 (BT474 cells),EC50 (H460 cells),EC50 (MB453 cells),EC50 (U87 cells),EC50 (MCF7 cells)
2 nM,"CCc1ncnc(-c2cccc(OC(C)C)c2)c1C#Cc1cnc(C)c(NS(C)(=O)=O)c1 [Example 64, N-{5-[4-Ethyl-6-(3-isopropoxy-phenyl)-pyrimidin-5-ylethynyl]-2-methyl-pyridin-3-yl}-methanesulfonamide]",615 nM,606 nM,621 nM,888 nM,309 nM
20 nM,"CCc1ncnc(-c2cccc(C(F)(F)F)c2F)c1C#Cc1cnc(C)c(NS(C)(=O)=O)c1 [Example 70, N-{5-[4-Ethyl-6-(2-fluoro-3-trifluoromethyl-phenyl)-pyrimidin-5-ylethynyl]-2-methyl-pyridin-3-yl}-methanesulfonamide]",1570 nM,1180 nM,1270 nM,2350 nM,374 nM
9 nM,"CCc1ncnc(-c2ccc(OC)cc2F)c1C#Cc1cnc(C)c(NS(C)(=O)=O)c1 [Example 71, N-{5-[4-Ethyl-6-(2-fluoro-4-methoxy-phenyl)-pyrimidin-5-ylethynyl]-2-methyl-pyridin-3-yl}-methanesulfonamide]",1020 nM,683 nM,558 nM,1300 nM,389 nM
8 nM,"CCc1ncnc(-c2ccc(C(=O)N(C)C)cc2F)c1C#Cc1cnc(C)c(NS(C)(=O)=O)c1 [Example 72, 4-[6-Ethyl-5-(5-methanesulfonylamino-6-methyl-pyridin-3-ylethynyl)-pyrimidin-4-yl]-3-fluoro-N,N-dimethyl-benzamide]",1950 nM,3030 nM,746 nM,1580 nM,679 nM
1 nM,"CCc1ncnc(-c2ccnc(C(C)(C)C)c2)c1C#Cc1cnc(C)c(NS(C)(=O)=O)c1 [Example 75, N-{5-[4-(2-tert-Butyl-pyridin-4-yl)-6-ethyl-pyrimidin-5-ylethynyl]-2-methyl-pyridin-3-yl}-methanesulfonamide]",169 nM,200 nM,143 nM,449 nM,79 nM
0.91 nM,"CCc1ncnc(-c2ccnc(OC)c2)c1C#Cc1cnc(C)c(NS(C)(=O)=O)c1 [Example 76, N-{5-[4-Ethyl-6-(2-methoxy-pyridin-4-yl)-pyrimidin-5-ylethynyl]-2-methyl-pyridin-3-yl}-methanesulfonamide]",356 nM,207 nM,148 nM,466 nM,93 nM
4 nM,"CCc1ncnc(-c2ccc(CN)cc2)c1C#Cc1cnc(C)c(NS(C)(=O)=O)c1 [Example 78, N-{5-[4-(4-Aminomethyl-phenyl)-6-ethyl-pyrimidin-5-ylethynyl]-2-methyl-pyridin-3-yl}-methanesulfonamide]",524 nM,2400 nM,240 nM,892 nM,549 nM
0.65 nM,"CCc1ncnc(-c2ccnc(C)c2)c1C#Cc1cnc(C)c(NS(=O)(=O)c2ccccc2)c1 [Example 83, N-{5-[4-Ethyl-6-(2-methyl-pyridin-4-yl)-pyrimidin-5-ylethynyl]-2-methyl-pyridin-3-yl}-benzenesulfonamide]",103 nM,57 nM,86 nM,227 nM,29 nM
1 nM,"CCc1ncnc(-c2ccnc(C)c2)c1C#Cc1cnc(C)c(NS(=O)(=O)c2ccc(Cl)cc2)c1 [Example 85, 4-Chloro-N-{5-[4-ethyl-6-(2-methyl-pyridin-4-yl)-pyrimidin-5-ylethynyl]-2-methyl-pyridin-3-yl}-benzenesulfonamide]",302 nM,352 nM,499 nM,980 nM,88 nM
1 nM,"CCc1ncnc(-c2ccnc(C)c2)c1C#Cc1cnc(C)c(NS(=O)(=O)c2ccc(C)cc2)c1 [Example 86, N-{5-[4-Ethyl-6-(2-methyl-pyridin-4-yl)-pyrimidin-5-ylethynyl]-2-methyl-pyridin-3-yl}-4-methyl-benzenesulfonamide]",302 nM,208 nM,492 nM,697 nM,56 nM
5 nM,"CCc1ncnc(-c2ccnc(C)c2)c1C#Cc1cnc(C)c(NS(=O)(=O)c2ccc(OC)cc2)c1 [Example 87, N-{5-[4-Ethyl-6-(2-methyl-pyridin-4-yl)-pyrimidin-5-ylethynyl]-2-methyl-pyridin-3-yl}-4-methoxy-benzenesulfonamide]",381 nM,240 nM,505 nM,887 nM,372 nM
9 nM,"CCc1ccccc1S(=O)(=O)Nc1cc(C#Cc2c(CC)ncnc2-c2ccnc(C)c2)cnc1C [Example 88, 2-Ethyl-N-{5-[4-ethyl-6-(2-methyl-pyridin-4-yl)-pyrimidin-5-ylethynyl]-2-methyl-pyridin-3-yl}-benzenesulfonamide]",175 nM,140 nM,330 nM,704 nM,65 nM
0.88 nM,"CCc1ncnc(-c2ccnc(C)c2)c1C#Cc1cnc(C)c(NS(=O)(=O)c2ccccc2C)c1 [Example 89, N-{5-[4-Ethyl-6-(2-methyl-pyridin-4-yl)-pyrimidin-5-ylethynyl]-2-methyl-pyridin-3-yl}-2-methyl-benzenesulfonamide]",198 nM,319 nM,524 nM,827 nM,50 nM
0.39 nM,"CCc1ncnc(-c2ccnc(C)c2)c1C#Cc1cnc(C)c(NS(=O)(=O)c2cccnc2)c1 [Example 91, Pyridine-3-sulfonic acid {5-[4-ethyl-6-(2-methyl-pyridin-4-yl)-pyrimidin-5-ylethynyl]-2-methyl-pyridin-3-yl}-amide]",206 nM,799 nM,164 nM,476 nM,137 nM
7 nM,"CCc1ncnc(-c2ccnc(C)c2)c1C#Cc1cnc(C)c(NS(=O)(=O)c2ccc(C)cc2C)c1 [Example 92, N-{5-[4-Ethyl-6-(2-methyl-pyridin-4-yl)-pyrimidin-5-ylethynyl]-2-methyl-pyridin-3-yl}-2,4-dimethyl-benzenesulfonamide]",483 nM,365 nM,986 nM,983 nM,228 nM
1 nM,"CCc1ncnc(-c2ccnc(C)c2)c1C#Cc1cnc(C)c(NS(=O)(=O)c2cn(C)cn2)c1 [Example 93, 1-Methyl-1H-imidazole-4-sulfonic acid {5-[4-ethyl-6-(2-methyl-pyridin-4-yl)-pyrimidin-5-ylethynyl]-2-methyl-pyridin-3-yl}-amide]",406 nM,293 nM,149 nM,562 nM,194 nM
1 nM,"CCc1ncnc(-c2ccnc(C)c2)c1C#Cc1cnc(C)c(NS(=O)(=O)c2ccc(CNC(C)=O)cc2)c1 [Example 94, N-(4-{5-[4-Ethyl-6-(2-methyl-pyridin-4-yl)-pyrimidin-5-ylethynyl]-2-methyl-pyridin-3-ylsulfamoyl}-benzyl)-acetamide]",644 nM,2580 nM,514 nM,2320 nM,580 nM
2 nM,"Cc1cc(-c2ncnc(C)c2C#Cc2cncc(NS(C)(=O)=O)c2)ccn1 [Example 95, N-{5-[4-Methyl-6-(2-methyl-pyridin-4-yl)-pyrimidin-5-ylethynyl]-pyridin-3-yl}-methanesulfonamide]",1650 nM,2020 nM,483 nM,391 nM,407 nM
